Data from a melting point compilation (Tetko et al.).
Peptide text beside a SMILES is read from it.

SMILES	melting point [°C]
O=C(O)C(F)(F)C(F)(F)C(F)(F)C(F)(F)C(F)(C(F)(F)F)C(F)(F)F	13
C=C1CC(=O)O1	-6.5
FC(F)(F)C(Cl)(Cl)Cl	14.2
c1ccc(-c2cc3c(ccc4nonc43)nn2)cc1	201 to 203
C#CCCCCCCCCCCCC	0
O=C(OCC(=O)N1CCC[C@H]1C(=O)O)c1ccccc1	116
CCCCCCCCCCCCOC(=O)c1ccc(N)cc1	82
COC(=O)CCC(C)C1CCC2C3CCC4CC(OC(C)=O)CCC4(C)C3CC(OC(C)=O)C12C (centres undefined)	116
c1ccc(C2CCCNC2)cc1 (centres undefined)	14.5
COP(=S)(OC)SCC(=O)N(c1ccc(Cl)cc1)C(C)C	51
NCC(=O)NCC(=O)NCC(=O)NCC(=O)O (H-GGGG-OH)	300
O=[N+]([O-])C=Cc1ccccc1Cl	48
CC(=O)C=NO	69
CN1C(=O)CN=C(c2ccccc2)c2cc([N+](=O)[O-])ccc21	157
CCc1cc(C(N)=S)ccn1	164
CCN(CC)C(=O)C1C=C2c3cccc4[nH]c(Br)c(c34)CC2N(C)C1 (centres undefined)	124
C=Cc1ccc2c(c1)OCCOCCOCCOCCOCCO2	57 to 60
O=C(O)C1C2CCC(C2)C1C(=O)c1ccccc1 (centres undefined)	180 to 183
O=P(N1CC1)(N1CC1)N(N=Cc1ccccc1)c1ccccc1	114
O=C(C(=S)Nc1ccc(Br)cc1)c1ccccc1	118
CC(C)(C)C(=O)NNCc1ccccc1	68.5
O=C(CCl)c1ccc(Cl)c(Cl)c1	44
N#Cc1ccnc(I)c1	79
COCCN1CCCNCC1	67
ClCc1cc(Cl)cc(Cl)c1	36

SMILES	melting point [°C]
Sc1nc(-c2ccccc2)cs1	174
N#CCC(N)=C(C#N)C#N	172
CCN(CC)CCOC(=O)C(c1ccccc1)c1ccccc1	114
CC(C)OC(=O)C(O)(c1ccc(Cl)cc1)c1ccc(Cl)cc1	73
FC(F)(F)C(F)(F)C(F)(F)C(F)(F)C(F)(F)C(F)(F)C(F)(F)C(F)(F)C(F)(F)C(F)(F)CCI	82 to 83
NCCCC(N)C(=O)O (centres undefined)	140
OC1CC(O)C(O)C(O)C1O (centres undefined)	236
O=C(OCCc1cc([N+](=O)[O-])c(CCOC(=O)c2ccccc2)cc1[N+](=O)[O-])c1ccccc1	157 to 158
O=C=Nc1ccccc1Cl	30.5
COc1cc(CC2c3cc(OC)c(OC)cc3CCN2C)c(Oc2cc3c(cc2OC)-c2c(OC)c(OC)cc4c2C(C3)N(C)CC4)cc1OC (centres undefined)	160
O=[N+]([O-])c1ccc(N/N=C2\C=C(c3ccccc3)c3ccccc32)cc1	265 to 266
O=C(O)CCCCCO	38 to 40
NC(c1ccccc1)c1ccccc1	34
c1ccc(N2CN(c3ccccc3)CN(c3ccccc3)C2)cc1	191
O=C(C(C(F)(F)F)C(F)(F)F)N(Cc1ccccc1)Cc1ccccc1	76
CC12CCCC1C1CCC3CC4(CCC3(C)C1CC2)OCCO4 (centres undefined)	117
OCc1csc2ccccc12	49 to 50
NC(CC(=O)O)C(F)(F)F (centres undefined)	185 to 190
CCCCOCCOCCOC(C)=O	-32
CC(=Cc1ccccc1)c1ccccc1	82
O=C1C(C(O)c2ccc(O)cc2)C(C(F)(F)F)=NN1c1ccccc1 (centres undefined)	211
COP(=S)(OC)Oc1nc(Cl)c(Cl)cc1Cl	46
CC(=O)C1CCC2C3CCC4CC(O)CCC4(C)C3CCC12C (centres undefined)	194
CC(=O)NCCCCC(N)C(=O)O (centres undefined)	250
CCC(C)(C#N)N=NC(C)(C#N)CC (centres undefined)	50

Next, values leading:

melting point [°C]	SMILES
0	CCc1c(C)c[nH]c1C
-78	O=C1CCCCC1C1=CCCCC1 (centres undefined)
209 to 213	Cc1c(O)c(Br)c(Br)c(Br)c1Br
136	O=[N+]([O-])c1cc([N+](=O)[O-])c(OCCO)cc1OCCO
238 to 240	CC(=O)N=c1c(-c2ccccc2)cc2cc3cc(-c4ccccc4)c(=NC(C)=O)n(C(C)=O)c3cc2n1C(C)=O
157 to 160	Nc1c(C(=O)O)cccc1C(F)(F)F
247	O=C(O)C=Cc1ccc(F)cc1Cl
-82.5	CCCc1cccc(C)c1
78	O=[N+]([O-])c1ccc(S(=O)(=O)Cl)cc1
194 to 196	Cc1c(C#N)c(N)n(Cc2c(Cl)cccc2Cl)c1C
191	O=C(O)c1ccc(F)cc1O
118	Cc1cc(C)c(C)c(O)c1C
143 to 145	CC(=O)Nc1ccc(S(=O)(=O)Cl)cc1Cl
73 to 75	CCOC(=O)ON=C(C(=O)c1ccccc1)c1ccccc1
150	C/C=C/C1Nn2c(nnc2-c2ccc([N+](=O)[O-])cc2)S1 (centres undefined)
123	O=C(NCCCc1ccccc1)c1cc([N+](=O)[O-])cc([N+](=O)[O-])c1
143	Nc1ccc2ccc3ccccc3c2c1
210	CCCCCNc1ccc(NCCCCC)c2c1C(=O)c1ccccc1C2=O
53	Cc1cc(C)c(C#N)c(C)c1
150	COc1ccc(C(=O)c2noc(-c3ccc(Br)cc3)c2S(=O)(=O)c2ccccc2)cc1
184	CC12CCC(=O)C=C1CCC1C2C(=O)CC2(C)C(C(=O)CO)CCC12 (centres undefined)
148	COc1cc2c(cc1OC)C(c1ccc(C)o1)SC(c1ccc(C)o1)=N2 (centres undefined)
288 to 289	COc1ccc(Br)c2c1C(=NNc1ccc([N+](=O)[O-])cc1[N+](=O)[O-])C2
-31.1	CC1=CC=C(C(C)C)CC1
240 to 241	O=C1C(=C2C=Cc3ccccc3N2)C(=O)c2ccccc21

melting point [°C]	SMILES
142	COc1ccc2c(c1)C(=O)CC(c1ccccc1)O2 (centres undefined)
156	CC(=O)Nc1ccc(Br)cc1F
79 to 81	COC(=O)c1ccc(S(=O)(=O)Cl)n1C
255	CC1(c2ccc([N+](=O)[O-])cc2)Nn2c(nnc2C(F)(F)F)S1 (centres undefined)
66	Nc1ccc(Cl)cc1Br
86	COc1c(C)c(C)c(OC)c(C=O)c1C
51	CCOC(=O)C1=NN(c2ccc(Cl)cc2Cl)C(C)(C(=O)OCC)C1 (centres undefined)
96 to 97	Brc1ccc(Oc2c(Br)cccc2Br)c(Br)c1
236	O=C1OC(c2ccc([N+](=O)[O-])cc2)=NC1=Cc1ccccc1
164 to 167	COc1cc(OC)c(OC)cc1/C=C/C(=O)O
164	COc1ccc(C(N)=O)cc1OC
82 to 84	O=S(=O)(Cl)c1ccc(-c2ccc(F)cc2)cc1
26 to 30	Cc1cccc(Br)c1[N+](=O)[O-]
206 to 207	NNC(=O)c1csc(CS(=O)(=O)c2ccc(Cl)cc2)n1
265	O=C(O)c1cc2cccc([N+](=O)[O-])c2[nH]1
102	CN1c2ccccc2Sc2ccccc21
223 to 225	Cn1nc(N)c2c(=O)c(C(=O)O)c[nH]c21
66 to 67	Brc1ccc(-c2ccno2)s1
190	CCCc1nn(C)c2c(=O)nc(-c3cc(S(=O)(=O)N4CCN(C)CC4)ccc3OCC)[nH]c12
170	Nc1nc(-c2ccc(Br)s2)cs1
228	COc1cc(C)c(C=CC(C)=CC=CC(C)=CC(=O)O)c(C)c1C
71 to 76	CC(C)(C)OC(=O)NC(Cc1cccs1)C(=O)O (centres undefined)
81	COC(=O)c1ccc([N+](=O)[O-])c(C)c1
121 to 122	O=S(=O)(Cl)c1cc(Br)cc2c1OCC2
129 to 205	CCCOC(=O)c1ccc(OC(=O)c2ccc(C(=O)Oc3ccc(C(=O)OCCC)cc3)cc2)cc1

melting point [°C]	SMILES
64 to 66	CCOC(=O)C1CCN(c2ncnc3ccsc23)CC1
61	Cc1ccc(C)c(OCCCC(C)(C)C(=O)O)c1
95	O=C(Oc1cccc([N+](=O)[O-])c1)c1ccccc1
98 to 99	O=C(C=Cc1ccc(-c2ccccc2)o1)c1ccccc1
52	CCOc1cc(C=O)ccc1OC
30 to 36	Cc1ccccc1C(=O)Cc1ccccc1C(=O)OC(C)(C)C
46	O=Cc1cc(Br)cc(OC(F)(F)F)c1O
322	O=S(=O)(O)c1ccc(O)c2ncccc12
155	Oc1ccc(Cl)nc1
58	COC(=O)c1cnccn1
51	Cc1onc(-c2c(F)cccc2Cl)c1C(=O)Cl
116	O=Cc1cc2c(cc1Cl)OCO2
135 to 140	CC1(C)OC(=O)C(c2ccccc2)C(=O)O1
255 to 257	O=C(O)c1ccc(-c2ccc([N+](=O)[O-])cc2)o1
205	O=[N+]([O-])c1ccc(C2Nn3c(nnc3-c3cccc([N+](=O)[O-])c3)S2)cc1 (centres undefined)
107	O=C(Nc1ccc(F)cc1)c1cccc(Oc2cccc(C(F)(F)F)c2)n1
111	Cc1[nH]c(C)c(C)c1C
105	Nc1ccccc1SC(=O)c1ccccc1
111 to 114	O=C(O)Cc1c(F)ccc(F)c1F
266 to 270	Oc1ccnc2cc(C(F)(F)F)ccc12
115	c1ccc(COc2ccc3cc[nH]c3c2)cc1
97.5	CCOC(=O)c1coc(Cl)n1
180	CN(C)c1ccc(C(c2ccc(N(C)C)cc2)c2ccc(N(C)C)cc2)cc1
323	Cn1cnc2ncnc(N)c21
